Source: patent US8163718B2, “Nucleoside analogues containing phosphonate or phosphonamide groups” (Gilead Sciences, Inc., priority 2008, dated 2012)

Test system: naturally occurring non-Hodgkin's lymphoma
Test: Efficacy in a dog with naturally occurring non-Hodgkin's lymphoma (RECIST)
Assay type: in vivo
Parameters: key to Lymphnode R PSLN size / Lymphnode L PopLN size / Lymphnode L SMLN size / Lymphnode R SMLN size / Lymphnode L PSLN size: WNL refers to when a lymph node is decreased to a size considered within normal ranges for that node
Conditions: for % change of sum of lymphnodes: vs baseline sum; for Sum of lymphnodes: Day 0 pre treatment sum 16.9
Method: Compound (21) was evaluated for efficacy in a dog with naturally occurring non-Hodgkin's lymphoma (NHL). Canine NHL has proven to be a relevant model for preclinical evaluation of new therapeutics, both for initial induction and rescue of drug-resistant relapse (Reference Vail D M, Thamm D H. Spontaneously occurring tumors in companion animals as models for drug development. In: Teisher B A, ed. Anticancer Drug Development Guide. 2nd ed. Totowa (NJ): Humana Press Inc; 2004; 259-286.) Evaluation of novel therapeutic approaches in dogs with spontaneous cancer offers potential benefit to canine patients and a rapid assessment of therapeutic index. Because the tumors arise spontaneously in an immunologically intact host and have greater heterogeneity than passaged cell lines, it is not surprising that responses to standard chemotherapeutic agents in canine malignancies are similar to those of the corresponding tumors in man and that the preclinical results attained may be more predictive of the activity in humans (references; Khanna C, Paoloni M. Translation of new cancer treatments from pet dogs to humans. Nature Rev Cancer. 2008; 8:7-16.; Vail D M, Young K M. Canine lymphoma and lymphoid leukemia. In: Withrow S J, Vail D M, eds. Small Animal Clinical Oncology. 4th Ed. St. Louis (MO): Saunders; 2007. p. 699-733.) Non-Hodgkin's lymphoma in dogs represents a relatively homogenous population with respect to histological type as defined by the REAL/WHO or NCI-Working Formulation schema (i.e., 85% are medium- to high-grade B-cell NHL) with the majority being diffuse large B-cell lymphoma (reference Jacobs R M, Messick J B, Valli V E. Tumors of the hemolymphatic system. In: Meuten D J, editor. Tumors in Domestic Animals. 4th Ed. Ames (IA): Iowa State Press; 2002:119-198).
Compound (21) was administered at a dose of 0.3 mg/kg of body weight by 30 minute IV infusion in Sterile Saline Injection (0.9% sodium chloride for injection) (total volume 2 ml/kg or 100 ml) once every 21 days to a dog that had non-Hodgkin's lymphoma involving multiple lymphnodes. Diagnosis was confirmed by histological evaluation of the tumor. The effect of treatment on the tumor was measured using the Response Evaluation Criteria in Solid Tumors (RECIST) Guideline (Therasse et al 2000). The size of the tumors and response to treatment was evaluated by in these peripherally accessible lymph nodes, by measuring the longest dimension using callipers and evaluating changes in the individual tumor measurement and their sums. […] Confirmation was done by cytological examination of an aspirated biopsy to confirm the absence of tumor cells.

[1] = Day 7 (printed under the Day 1 column)
[2] = Day 14 (printed under the Day 7 column)
[3] = Day 21 (printed under the Day 14 column)
[4] = Day 28 (printed under the Day 21 column)
[5] = Day 42 (printed under the Day 28 column)

## CCCOc1nc(N)nc2c1ncn2CCOCP(=O)(N1CCC[C@H]1C(=O)OCC)N1CCC[C@H]1C(=O)OCC [Example 21]
Day 1 (printed under the Day 0 column)
  % change of sum of lymphnodes: −13.0%
Day 1, 0.3 mg/kg IV once every 21 days, Day 0 pre treatment 2.3
  Lymphnode L PopLN longest dimension: 2.1 cm
Day 1, 0.3 mg/kg IV once every 21 days, Day 0 pre treatment 2.9
  Lymphnode R SMLN longest dimension: 3.1 cm
Day 1, 0.3 mg/kg IV once every 21 days, Day 0 pre treatment 3.1
  Lymphnode L SMLN longest dimension: 2.0 cm
Day 1, 0.3 mg/kg IV once every 21 days, Day 0 pre treatment 3.6
  Lymphnode R PSLN longest dimension: 3.6 cm
Day 1, 0.3 mg/kg IV once every 21 days, Day 0 pre treatment 5.0
  Lymphnode L PSLN longest dimension: 3.9 cm
Day 1, 0.3 mg/kg IV once every 21 days
  Sum of lymphnodes: 14.7 cm
Day 1 vs Day 0 pre treatment sum 16.9
  Change of sum of lymphnodes: −2.2 cm
[1]
  Response (RECIST): PR (Partial Response (PR) if at least a 30% decrease in the sum of the LD of target lesions, taking as reference the baseline sum)
  % change of sum of lymphnodes: −66.3%
Day 7, 0.3 mg/kg IV once every 21 days, Day 0 pre treatment 2.3
  Lymphnode L PopLN longest dimension: 1.6 cm
Day 7, 0.3 mg/kg IV once every 21 days, Day 0 pre treatment 2.9
  Lymphnode R SMLN longest dimension: 1.0 cm
Day 7, 0.3 mg/kg IV once every 21 days, Day 0 pre treatment 3.1
  Lymphnode L SMLN longest dimension: 1.1 cm
Day 7, 0.3 mg/kg IV once every 21 days, Day 0 pre treatment 3.6
  Lymphnode R PSLN longest dimension: 1.0 cm
Day 7, 0.3 mg/kg IV once every 21 days, Day 0 pre treatment 5.0
  Lymphnode L PSLN longest dimension: 1.0 cm
Day 7
  Sum of lymphnodes: 5.7 cm
Day 7 vs Day 0 pre treatment sum 16.9
  Change of sum of lymphnodes: −11.2 cm
[2]
  Response (RECIST): PR (Partial Response (PR) if at least a 30% decrease in the sum of the LD of target lesions, taking as reference the baseline sum)
  % change of sum of lymphnodes: −69.2%
Day 14, 0.3 mg/kg IV once every 21 days, Day 0 pre treatment 2.3
  Lymphnode L PopLN longest dimension: 1.0 cm
Day 14, 0.3 mg/kg IV once every 21 days, Day 0 pre treatment 2.9
  Lymphnode R SMLN longest dimension: 1.0 cm
Day 14, 0.3 mg/kg IV once every 21 days, Day 0 pre treatment 3.1
  Lymphnode L SMLN longest dimension: 1.0 cm
Day 14, 0.3 mg/kg IV once every 21 days, Day 0 pre treatment 3.6
  Lymphnode R PSLN longest dimension: 1.0 cm
Day 14, 0.3 mg/kg IV once every 21 days, Day 0 pre treatment 5.0
  Lymphnode L PSLN longest dimension: 1.2 cm
Day 14
  Sum of lymphnodes: 5.2 cm
Day 14 vs Day 0 pre treatment sum 16.9
  Change of sum of lymphnodes: −11.7 cm
Day 21 (Treatment #2), 0.3 mg/kg IV once every 21 days, Day 0 pre treatment 2.3
  Lymphnode L PopLN longest dimension: 1.3 cm
Day 21 (Treatment #2), 0.3 mg/kg IV once every 21 days, Day 0 pre treatment 2.9
  Lymphnode R SMLN longest dimension: 2.0 cm
Day 21 (Treatment #2), 0.3 mg/kg IV once every 21 days, Day 0 pre treatment 3.1
  Lymphnode L SMLN longest dimension: 2.3 cm
Day 21 (Treatment #2), 0.3 mg/kg IV once every 21 days, Day 0 pre treatment 3.6
  Lymphnode R PSLN longest dimension: 2.7 cm
Day 21 (Treatment #2), 0.3 mg/kg IV once every 21 days, Day 0 pre treatment 5.0
  Lymphnode L PSLN longest dimension: 2.8 cm
Day 21 (Treatment #2)
  Sum of lymphnodes: 11.1 cm
[3]
  Response (RECIST): PR (Partial Response (PR) if at least a 30% decrease in the sum of the LD of target lesions, taking as reference the baseline sum)
  % change of sum of lymphnodes: −34.3%
Day 21 vs Day 0 pre treatment sum 16.9
  Change of sum of lymphnodes: −5.8 cm
[4]
  Response (RECIST): PR (Partial Response (PR) if at least a 30% decrease in the sum of the LD of target lesions, taking as reference the baseline sum)
  % change of sum of lymphnodes: −67.5%
Day 28, 0.3 mg/kg IV once every 21 days, Day 0 pre treatment 2.9
  Lymphnode R SMLN longest dimension: 1.0 cm
Day 28, 0.3 mg/kg IV once every 21 days, Day 0 pre treatment 3.1
  Lymphnode L SMLN longest dimension: 1.5 cm
Day 28, 0.3 mg/kg IV once every 21 days, Day 0 pre treatment 3.6
  Lymphnode R PSLN longest dimension: 1.5 cm
Day 28, 0.3 mg/kg IV once every 21 days, Day 0 pre treatment 5.0
  Lymphnode L PSLN longest dimension: 1.5 cm
Day 28
  Sum of lymphnodes: 5.5 cm
Day 28 vs Day 0 pre treatment sum 16.9
  Change of sum of lymphnodes: −11.4 cm
Day 42 (Treatment #3), 0.3 mg/kg IV once every 21 days, Day 0 pre treatment 2.3
  Lymphnode L PopLN size: WNL
Day 42 (Treatment #3), 0.3 mg/kg IV once every 21 days, Day 0 pre treatment 2.9
  Lymphnode R SMLN size: WNL
Day 42 (Treatment #3), 0.3 mg/kg IV once every 21 days, Day 0 pre treatment 3.1
  Lymphnode L SMLN size: WNL**
Day 42 (Treatment #3), 0.3 mg/kg IV once every 21 days, Day 0 pre treatment 3.6
  Lymphnode R PSLN size: WNL
Day 42 (Treatment #3), 0.3 mg/kg IV once every 21 days, Day 0 pre treatment 5.0
  Lymphnode L PSLN size: WNL
[5]
  Response (RECIST): CR (Complete Response (CR) if lymphnodes returned to a size within normal limits)
  % change of sum of lymphnodes: −100%
After one treatment, 0.3 mg/kg IV
  Response to treatment: Partial Response
Starting on Day 7 after the first treatment, continued improvement to day 42
  reduction in tumor size: significant reduction in tumor size
With continued treatment, 0.3 mg/kg IV once every 21 days
  Response to treatment: Complete Response with complete elimination of the tumor
